Test results as given in ChEMBL document CHEMBL1131792, “Structure-based design of a non-peptidic antagonist of the SH2 domain of GRB2” (Bioorg Med Chem Lett, 1999).

Key:
[1] = target: T1, Growth factor receptor-bound protein 2 (Homo sapiens, UniProt P62993); assay: Inhibition of Grb2 SH2 domain binding to phospho-EGF receptor intracellular C-terminal domain at 5 mM
Target sequence in this assay (P62993 whole entry, looked up, the tested form may be a part): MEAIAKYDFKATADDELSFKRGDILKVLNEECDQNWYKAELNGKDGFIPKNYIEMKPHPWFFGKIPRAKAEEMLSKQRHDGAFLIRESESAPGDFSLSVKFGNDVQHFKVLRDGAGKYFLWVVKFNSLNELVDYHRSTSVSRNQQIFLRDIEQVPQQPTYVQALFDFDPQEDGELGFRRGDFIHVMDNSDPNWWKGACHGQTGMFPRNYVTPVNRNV

[2] = target: T1, Growth factor receptor-bound protein 2; assay: Inhibition of Grb2 SH2 domain binding to phospho-EGF receptor intracellular C-terminal domain
Target sequence in this assay (P62993 whole entry, the tested form may be a part): as the sequence (P62993 whole entry, looked up, the tested form may be a part) above

Row | SMILES | inhibition [1] [%] | IC50 [2] [µM]
1 | O=P(O)(O)Oc1ccccc1 | 55 | 
2 | Cc1sc(-c2nccc(N)n2)nc1-c1ccc(OP(=O)(O)O)cc1 |  | 25.9
3 | Nc1ccnc(NCCc2ccc(OP(=O)(O)O)cc2)n1 |  | > 200
